“Also recorded” adds a separate entry of the source.
Columns and labels:
[1] = molecular target: T1, Mu Opioid (Homo sapiens, UniProt P35372); experiment: Beta arrestin enzyme fragment complementation assay, mu opioid; type: cell-based; conditions: for EC50: read-out: Mu Opioid, Agonist EC50; for IC50: vs EC80 of agonist, read-out: Mu Opioid, Antagonist IC50
T1 construct: expressed in transfected cells
Method: Recruitment of β-arrestin to the GPCR, results in a functional enzyme that generates a chemiluminescent signal when substrate is added. Cells were plated at 5000 cells per well (40 µl per well) in black walled clear bottomed 384-well plates 24 h prior to running the assay. Medium was removed from the plates. For agonist studies 15 µl of HBSS/HEPES containing compound was added to the cells and the plate was incubated at room temperature for 90 min. For antagonist studies 15 µl of HBSS/HEPES containing compound was added to the cells and was incubated for 15 min prior to the addition of 15 µl of an EC80 concentration of agonist. The plate was subsequently incubated at room temperature for 90 min. Both assays were terminated by addition of 15 µl of a Beta-Glo® solution (Promega). Following an additional 30 min incubation the luminescence of each well was measured to determine the level of receptor activation.
In vitro data analysis: Agonist/antagonist curves were plotted from individual experiments, and EC50/IC50 values were determined using a four parameter logistic fit.

[2] = tested on: human D1R / β-arrestin2-GFP in U2OS cells; experiment: β-arrestin2-GFP membrane recruitment, TIRFM, U2OS cells; type: cell-based; conditions: U2OS cells expressing human D1R, 1 μM agonist, 10 min
Method: This stable U2OS cell line was generated, obtained and licensed from Professor Marc G. Caron, Duke University, Durham, NC, USA. […] The U2OS cells were cultured under antibiotic selection in DMEM (Invitrogen) containing 25 mM glucose and 4 mM L-glutamine supplemented with 10% dialyzed fetal bovine serum, […] Geneticin, […] Zeocin, and 100 U/ml penicillin/streptomycin (all from Invitrogen) and incubated at 37 °C in 5% CO2. Cells from passage four through ten were used in these experiments. Cells were grown in 35 mm glass bottomed imaging dishes (Mattek Corp). Cells were incubated for 1 h in serum free media (SFM) and subsequently treated for 10 min at 37 °C with 0.01% DMSO (control) or 1 μM of all test compounds dissolved in SFM followed by immediate fixation on ice with a 4% paraformaldehyde/1× phosphate buffered saline solution.
TIRFM was used to visualize proteins at the plasma membrane of cells such as D1 receptors and recruited β-arrestin-GFP[65]. All images were captured using a Zeiss PS.1 Elyra Superresolution fluorescence microscope equipped with TIRF module.
Custom image analysis scripts were developed to automatically identify and quantify β-arrestin membrane recruitment. We employed standard methods of image processing based on grayscale morphology. First 16bit images were transformed to 8bit range via square root transformation to improve identification of punctate structure of varying intensity. Images were smoothed with small Gaussian kernel to eliminate noise (h = 2px, σ = 1). At the next step images were transformed via tophat operation with large kernel (radius 30px) to eliminate non-uniformity of the background. Second tophat transform with small kernel (radius 5px) was used to enhance signal and eliminate local intensity variation around puncta. This image was then processed to find locations of puncta intensity peaks via non-maximal suppression filter with 3px radius of region considered in non-maximal suppression, and threshold 20. Finally the boundaries of puncta were identified using marker controlled watershed operation with peaks serving as foreground markers. After having identified each puncta, we used 8bit transformed but otherwise non-processed images to quantify intensity and area of each region. We focused on two endpoints, number of puncta per cell and integrated intensity of puncta per cell (sum of the products of average intensity and area of each puncta within a cell), both adjusted for cell area as described below. The boundaries of the cells were identified via Otsu's method, followed by hole filling and identification of the largest closely connected component. The area of the foreground was used as normalization factor to account for occasional differences in cell areas in the field of view. Specifically all foreground areas across experiment were pooled and divided by the median of the areas to obtain normalization factor for each image. This factor was then used for adjustment for number of puncta and integrated intensity of puncta, which scale with the number of cells. Puncta outside of cell boundaries were filtered out.
The results were aggregated over batches of cells recorded at the same time, with three or more batches per condition, approximately 20 cells per well. The statistical significance was tested via one-way ANOVA with treatment as a factor. To address the problem of severe inequality of variances across the treatment groups assessed via Bartlett′s test, we used square root transformation. All statistical results for the number of puncta per cell and integrated intensity of puncta per cell are presented for transformed variables. Significant ANOVA findings were followed with post-hoc comparisons with Dunnett′s procedure in case of comparisons with the control group or with false discover rate adjustment[69] otherwise. All statistical tests were performed two-tailed at a 5% level of significance.

[3] = tested on: human D1R N334A mutant; experiment: cAMP assay, D1R mutant N334A; conditions: relative to wild-type D1R; each table line is one experiment (Experiment # 1-6)

T1 sequence (P35372 whole entry, the tested form may be a part): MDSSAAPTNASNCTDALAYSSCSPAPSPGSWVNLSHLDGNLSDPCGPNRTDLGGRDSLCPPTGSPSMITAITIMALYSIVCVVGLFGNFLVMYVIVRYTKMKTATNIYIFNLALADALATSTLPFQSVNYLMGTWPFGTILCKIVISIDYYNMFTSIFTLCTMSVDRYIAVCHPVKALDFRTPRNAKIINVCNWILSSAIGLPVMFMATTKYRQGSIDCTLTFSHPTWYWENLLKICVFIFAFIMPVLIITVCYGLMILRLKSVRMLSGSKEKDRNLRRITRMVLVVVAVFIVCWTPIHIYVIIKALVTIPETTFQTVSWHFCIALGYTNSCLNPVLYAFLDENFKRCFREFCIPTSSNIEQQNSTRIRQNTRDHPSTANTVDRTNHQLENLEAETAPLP

Compound	EC50 [1] [µM]	IC50 [1] [µM]	β-arrestin-GFP recruitment to the plasma membrane (TIRFM) [2]	fold shift of cAMP functional potency, N334A (EC50 mutant/ EC50 WT) [3]
Cc1cc(Oc2nccc3occc23)ccc1-c1c(C)cnnc1C [PF-1119]	> 10	> 10	significantly lower total signal	–
Cc1cc(Oc2cccc(O)c2O)ccc1-c1c(C)ncnc1C [PF-1437]	–	–	significantly higher signal; also recorded: β-arrestin recruitment profile similar to that of dopamine	1.2
Cc1cc(Oc2nccc3occc23)ccc1-c1c(C)ncc2nccn12 [PF-6142]	> 10	8.68	significantly lower total signal; also recorded: significantly less recruitment of β-arrestin	1.3
Cc1cc(Oc2nccc3occc23)ccc1-n1c(C)nc2cnccc21 [PF-8294]	> 10	> 10	significantly lower total signal	–
Cc1cc(Oc2nccc3occc23)ccc1-c1c(C)ncnc1C [PF-8871]	> 10	> 10	significantly lower signal than in dopamine groups; also recorded: minimal recruitment of β-arrestin	–

— article PMC5813016 (Nature Communications, 2018)
